According to ChEMBL document CHEMBL1201862, “PubChem BioAssay data set” (2004):
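In this assay, cells in 96-well plates receive the compound at five concentrations for 48 hours. Endpoints are linearly interpolated between the surrounding concentrations. Here, GI50 denotes the concentration required for 50% inhibition of growth.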 The source made the active and inactive calls. Cut-off read from the data, not from the text of the source: active = GI50 up to about 1.1 µM and inactive = higher.

Key:
Experiment in all cases: NCI-60 cell line screen, 48 h
SNB-75 = system: SNB-75
OVCAR-5 = system: OVCAR-5
SN12C = system: SN12C
UACC-257 = system: UACC-257
HCT-116 = system: HCT-116
EKVX = system: EKVX
BT-549 = system: BT-549
NCI-H460 = system: NCI-H460
COLO 205 = system: COLO 205
SF-539 = system: SF-539
SK-MEL-5 = system: SK-MEL-5
NCI-H23 = system: NCI-H23
Hs-578T = system: Hs-578T
KM12 = system: KM12
A498 = system: A498
UACC-62 = system: UACC-62
M14 = system: M14
IGROV-1 = system: IGROV-1
OVCAR-4 = system: OVCAR-4
MDA-MB-231 = system: MDA-MB-231

Row | Compound | GI50 (SNB-75) | GI50 (OVCAR-5) | GI50 (SN12C) | GI50 (UACC-257) | GI50 (HCT-116) | GI50 (EKVX) | GI50 (BT-549) | GI50 (NCI-H460) | GI50 (COLO 205) | GI50 (SF-539) | GI50 (SK-MEL-5) | GI50 (NCI-H23) | GI50 (Hs-578T) | GI50 (KM12) | GI50 (A498) | GI50 (UACC-62) | GI50 (M14) | GI50 (IGROV-1) | GI50 (OVCAR-4) | GI50 (MDA-MB-231)
1 | O=C1C=CC(=O)c2c1c1c(c3c2C2c4ccccc4C3c3ccccc32)C2c3ccccc3C1c1ccccc12 | 10.2 µM (inactive) | 6.55 µM (inactive) | 3.67 µM (inactive) | 1.85 µM (inactive) | 1.56 µM (inactive) | 3.66 µM (inactive) | 3.26 µM (inactive) | 13.2 µM (inactive) | 1.5 µM (inactive) | 5.15 µM (inactive) | 3.3 µM (inactive) | 2.72 µM (inactive) | 4.29 µM (inactive) | 12.7 µM (inactive) | 2.9 µM (inactive) | 2.07 µM (inactive) | 1.7 µM (inactive) | 7.06 µM (inactive) | 2.04 µM (inactive) | 
2 | C[C@]12CC[C@@H]3c4ccc(O)cc4CC[C@H]3[C@@H]1C/C(=C\c1ccc(C#N)cc1)C2=O | 94 µM (inactive) | 71.8 µM (inactive) | 68.4 µM (inactive) | 30.8 µM (inactive) | 32.9 µM (inactive) | 34.8 µM (inactive) | 48.2 µM (inactive) | 36.1 µM (inactive) | 37.2 µM (inactive) | 36.5 µM (inactive) | 19.2 µM (inactive) | 38.2 µM (inactive) |  | 23.1 µM (inactive) | > 100 µM (inactive) | 61.1 µM (inactive) | 41.8 µM (inactive) | 46.1 µM (inactive) | 40.5 µM (inactive) | 23.3 µM (inactive)
3 | CC1(C)CN=C(Nc2ccc(F)c(F)c2)S1 | > 100 µM (inactive) | > 100 µM (inactive) | > 100 µM (inactive) | > 100 µM (inactive) | > 100 µM (inactive) | > 100 µM (inactive) | > 100 µM (inactive) |  | > 100 µM (inactive) | > 100 µM (inactive) | > 100 µM (inactive) | > 100 µM (inactive) | > 100 µM (inactive) | > 100 µM (inactive) |  | > 100 µM (inactive) | > 100 µM (inactive) | > 100 µM (inactive) | > 100 µM (inactive) | > 100 µM (inactive)
4 | OC[C@@H](O)[C@H](O)[C@H](O)[C@@H](O)C1SCCCS1 | > 100 µM (inactive) | > 100 µM (inactive) | > 100 µM (inactive) | > 100 µM (inactive) | > 100 µM (inactive) | > 100 µM (inactive) | > 100 µM (inactive) | > 100 µM (inactive) | > 100 µM (inactive) | > 100 µM (inactive) | > 100 µM (inactive) | > 100 µM (inactive) |  | > 100 µM (inactive) | > 100 µM (inactive) | > 100 µM (inactive) | > 100 µM (inactive) | > 100 µM (inactive) | > 100 µM (inactive) | > 100 µM (inactive)
5 | CN1CCN(Cc2cc3c(nn2)-c2ccccc2C3=O)CC1 | > 100 µM (inactive) | > 100 µM (inactive) |  | 19.2 µM (inactive) | 30.4 µM (inactive) | 46.3 µM (inactive) | 53.6 µM (inactive) | 34.4 µM (inactive) | 17.7 µM (inactive) | 72.9 µM (inactive) | 16.9 µM (inactive) | 35 µM (inactive) | > 100 µM (inactive) | 59.2 µM (inactive) |  | 44.4 µM (inactive) | 31.2 µM (inactive) | 38.5 µM (inactive) |  | > 10 µM (inactive)
6 | COC(=O)c1ccc(NCc2cc(O)ccc2O)cc1 | 15.3 µM (inactive) | 15 µM (inactive) | 16.5 µM (inactive) | 14.4 µM (inactive) | 17.4 µM (inactive) | 15.6 µM (inactive) | 1.04 µM (active) | 23.6 µM (inactive) | 12.6 µM (inactive) | 5.46 µM (inactive) | 9.71 µM (inactive) | 15.4 µM (inactive) | 3.93 µM (inactive) | 12.4 µM (inactive) | 16.8 µM (inactive) | 10.4 µM (inactive) | 18 µM (inactive) | 9.89 µM (inactive) | 11.5 µM (inactive) | 
7 | O=C(c1ccccc1)N1CCC(CC2(c3cc4ccccc4[nH]3)OCCO2)CC1 | 47.1 µM (inactive) | 64 µM (inactive) | > 100 µM (inactive) | 27.5 µM (inactive) | 29.3 µM (inactive) | 66.2 µM (inactive) | 52.5 µM (inactive) | 35.9 µM (inactive) | 21.2 µM (inactive) | 37.7 µM (inactive) | 19.7 µM (inactive) | 42.3 µM (inactive) |  | 34.2 µM (inactive) | 21.4 µM (inactive) | 19 µM (inactive) | 18.5 µM (inactive) | 42.2 µM (inactive) | 47.3 µM (inactive) | 64.1 µM (inactive)
8 | C=C1CC2OC2(C(=O)O[C@H]2CCC3[C@@H]4CCC5=CC(=O)CC[C@]5(C)C4CC[C@@]32C)C1=O (stereo partly drawn) | 16.9 µM (inactive) | 19.6 µM (inactive) | 6.52 µM (inactive) | 8.05 µM (inactive) | 5.81 µM (inactive) | 25.5 µM (inactive) | 15.3 µM (inactive) | 11 µM (inactive) | 4.1 µM (inactive) | 9.33 µM (inactive) | 11.8 µM (inactive) | 9.53 µM (inactive) | 16.8 µM (inactive) | 12.6 µM (inactive) | 13.6 µM (inactive) | 14.6 µM (inactive) | 7.23 µM (inactive) | 10.9 µM (inactive) | 6.34 µM (inactive) | 
9 | COc1ccc2nc3cc(Cl)ccc3c(NCCCNCCCNc3c4ccc(Cl)cc4nc4ccc(OC)cc34)c2c1 | 0.0299 µM (active) | < 0.0224 µM (active) | < 0.01 µM (active) | 0.251 µM (active) | < 0.01 µM (active) | 0.137 µM (active) | 0.21 µM (active) | 0.0102 µM (active) | < 0.011 µM (active) | 0.0157 µM (active) | 0.0247 µM (active) | 0.0181 µM (active) |  | 0.0208 µM (active) | 0.0541 µM (active) | 0.0196 µM (active) | 0.0266 µM (active) | 0.0164 µM (active) | < 0.01 µM (active) | < 0.01 µM (active)
10 | N=c1c2c(-c3ccccc3)c[nH]c2ncn1N | > 100 µM (inactive) | > 100 µM (inactive) | > 100 µM (inactive) | > 100 µM (inactive) | > 100 µM (inactive) | > 100 µM (inactive) | > 100 µM (inactive) |  | > 100 µM (inactive) | > 100 µM (inactive) | > 100 µM (inactive) | > 100 µM (inactive) |  | > 100 µM (inactive) | > 100 µM (inactive) | > 100 µM (inactive) | > 100 µM (inactive) | > 100 µM (inactive) | > 100 µM (inactive) | > 100 µM (inactive)
11 | O=C1CCCC(=O)N1n1c(Cc2ccc(Cl)cc2)n[nH]c1=O | > 100 µM (inactive) | > 100 µM (inactive) | > 100 µM (inactive) | > 100 µM (inactive) | > 100 µM (inactive) | > 100 µM (inactive) | > 100 µM (inactive) | > 100 µM (inactive) | > 100 µM (inactive) | > 100 µM (inactive) | > 100 µM (inactive) | > 100 µM (inactive) | > 100 µM (inactive) | > 100 µM (inactive) |  | > 100 µM (inactive) | > 100 µM (inactive) | > 100 µM (inactive) | > 100 µM (inactive) | > 100 µM (inactive)
12 | CCOC(=O)c1ccc(NCC#CCN2CCOCC2)cc1 |  | 19.9 µM (inactive) | > 100 µM (inactive) |  | 53 µM (inactive) | 57.9 µM (inactive) | > 100 µM (inactive) |  | 38 µM (inactive) | > 100 µM (inactive) | 26.9 µM (inactive) | > 100 µM (inactive) | > 100 µM (inactive) | > 100 µM (inactive) | > 100 µM (inactive) | 34.8 µM (inactive) | 29.7 µM (inactive) | > 100 µM (inactive) | > 100 µM (inactive) | > 100 µM (inactive)
13 | CSC12c3cc(C)n(-c4ccc([N+](=O)[O-])cc4)c3CC(C)(C)CN1C(=O)C2Oc1ccccc1 (stereo not drawn) | 10.6 µM (inactive) | > 100 µM (inactive) | > 100 µM (inactive) | 70 µM (inactive) | 54.2 µM (inactive) | 36 µM (inactive) | > 100 µM (inactive) | 71.9 µM (inactive) | > 100 µM (inactive) | > 100 µM (inactive) | > 100 µM (inactive) | 74.1 µM (inactive) |  | 1.73 µM (inactive) | 10.6 µM (inactive) | 22.2 µM (inactive) | > 100 µM (inactive) | > 100 µM (inactive) | 4.72 µM (inactive) | 96.6 µM (inactive)
14 | CC(C(=O)N1C(=O)N(C(=O)C(C)C(O)c2ccccc2)C(c2ccccc2)C1c1ccccc1)C(O)c1ccccc1 (stereo not drawn) | 3.9 µM (inactive) |  | 12.9 µM (inactive) |  | 6.21 µM (inactive) |  | 12.6 µM (inactive) | 4.25 µM (inactive) | 13.3 µM (inactive) | 6.25 µM (inactive) | > 10 µM (inactive) | 16.5 µM (inactive) | 11.1 µM (inactive) | 3.34 µM (inactive) |  | 10.5 µM (inactive) | 10.5 µM (inactive) | 12.7 µM (inactive) | 13.4 µM (inactive) | 16.6 µM (inactive)
15 | CCc1nc(Cl)c(Cl)c(Cl)n1 | 0.242 µM (active) | > 100 µM (inactive) | > 100 µM (inactive) | > 100 µM (inactive) |  | > 100 µM (inactive) | > 100 µM (inactive) | > 100 µM (inactive) |  | > 100 µM (inactive) | > 100 µM (inactive) | > 100 µM (inactive) | > 100 µM (inactive) | > 100 µM (inactive) |  | > 100 µM (inactive) | > 100 µM (inactive) | > 100 µM (inactive) | > 100 µM (inactive) | 
